Measurements as given in US20240262801A1, “COMPOUNDS HAVING 5-(2-FLUORO-6-HYDROXYPHENYL)-1,2,5-THIADIAZOLIDIN-3-ONE 1,1-DIOXIDE AS INHIBITORS OF PROTEIN KINASE PHOSPHATASE ENZYMES” (Ness Therapeutics, Inc., priority 2021, published 2024).
Where two headings read alike, the source gives them in different places.

How the values were obtained:
[1] = system: B16F10 mouse melanoma cells; assay: Tumor cells B16F10 cellular growth IFNγ-induced inhibition assay (CellTiter-Glo); format: cell-based; conditions: for IC50: B16-F10, 72 h, 3 days incubation; for inhibition at 100 µM: B16-F10, B16F10, 100 μM compound
Description: B16F10 mouse melanoma cells (ATCC Cat #CRL-6475) were seeded at a density of 500 cells per well in a 384-well clear bottom plate (Corning Cat #3712, Corning, N.Y.) in 40 μL total volume of DMEM+10% FBS (PanEco Cat #C420, Russia and Sigma Cat #F4135, St. Louis, Mo.). Cells were allowed to adhere overnight at 37° C., 5% CO2. On the following day, 250× solutions of compounds in DMSO (Sigma Cat #D2650) were prepared into […] plate (Diamond Well Plate, Axigen, Cat #P-384-120SQ-C-S) (final concentration of 1×) and DMSO only controls were included. Dilution Plate (Diamond Well Plate (Axigen, Cat #P-384-120SQ-C-S) was prepared by adding 49 μL of culture medium per well: half of the plate with culture medium only, half with culture medium+IFNγ (5 ng/ml). A 1 μL aliquot of 250× compounds ([…] plate) was added to 49 μL of culture medium (Dilution plate), then a 10 μL aliqut of the mixture was transferred to Reaction plate with 40 μL of cells followed by centrifugation at 240 g for 1 min. After 3 days of incubation, 10 μL of CellTiter-Glo (Promega) was added to the cells, plates were centrifuged at 240 g for 1 min, and luminescence signal was measured. For each compound, the percent growth inhibition at every compound dose level was calculated relative to the “DMSO/with IFNγ” control and used to determine the IC50.

GST-tagged PTPN2 protein = target: T1, GST-tagged PTPN2 protein (Homo sapiens, UniProt P17706); assay: Primary assay of PTPN2 enzymatic activity inhibition (DiFMUP fluorescence); format: biochemical; conditions: DiFMUP substrate 2 μM, 60 min at RT
T1 construct: purchased ActiveMotif 31592
T1 sequence (P17706 with tags, fused parts or gaps): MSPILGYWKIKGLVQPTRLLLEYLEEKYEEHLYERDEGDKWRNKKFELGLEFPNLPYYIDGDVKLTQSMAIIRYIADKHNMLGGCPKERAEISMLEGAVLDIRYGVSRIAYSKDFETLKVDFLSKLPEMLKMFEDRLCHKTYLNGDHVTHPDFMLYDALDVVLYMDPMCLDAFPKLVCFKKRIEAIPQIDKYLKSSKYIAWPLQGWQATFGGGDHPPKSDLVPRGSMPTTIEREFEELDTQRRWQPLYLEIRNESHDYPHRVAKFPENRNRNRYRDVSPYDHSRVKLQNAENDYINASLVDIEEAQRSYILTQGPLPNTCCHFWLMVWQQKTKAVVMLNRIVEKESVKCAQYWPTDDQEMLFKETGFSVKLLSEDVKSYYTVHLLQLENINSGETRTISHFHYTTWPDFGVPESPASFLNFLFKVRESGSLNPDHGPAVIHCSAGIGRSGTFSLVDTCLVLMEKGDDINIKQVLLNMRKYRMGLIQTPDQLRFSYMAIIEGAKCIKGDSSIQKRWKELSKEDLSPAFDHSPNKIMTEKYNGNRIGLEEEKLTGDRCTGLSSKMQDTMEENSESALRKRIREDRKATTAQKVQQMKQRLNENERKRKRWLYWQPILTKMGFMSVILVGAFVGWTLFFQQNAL
Description: Compound activity was determined using GST-tagged PTPN2 protein (Cat #31592, ActiveMotif) (SEQ ID NO: 1) in an in vitro enzymatic reaction. The enzymatic reaction was carried out in assay buffer (50 mM HEPES Na salt pH 7.2-7.4, 2 mM EDTA, 100 mM NaCl, 52 ng/μL BSA, and 6 mM DTT). The compounds were dispensed on a 384 well Diamond Well Plate (Axigen, Cat #P-384-120SQ-C-S) using the Biomek FX liquid handling system at 100× solutions of compounds in DMSO. 2× PTPN2 (final concentration 0.004 ng/μL) was prepared in 1× Assay buffer and 25 μL of mixture per well was added into Reaction plate (Optiplate, black, Perkin Elmer, Cat #6007270). Add 25 μL of 1× buffer to Ctrl- (Substrate w/o PTPN2) wells followed by centrifugation at 100 g for 1 min. Next step the Compounds were added to Reaction plate using Biomek station via following steps: 3 ul of 100× compounds (in DMSO) were mixed with 27 μL of Assay Buffer, then 5 μL of this mixture was added to Reaction plate with 25 μL of PTPN2 Mix. Plates were centrifuged for 1 min at 100 g and incubated for another 10 minutes at room temperature. Finally, 20 μL of 2.5× Substrate (DiFUMP, Invitrogen™ Cat #D6567) mix was added into appropriate wells of Reaction plate to the final concentration of 2 μM, plate was centrifuged at 100 g for 1 min followed by incubation at RT for 60 min, and the Fluorescence Intensity was measured using a Microplate Reader (ClarioStar Plus, excitation 360 nm, emission 450 nm). The % inhibition was then used to calculate the IC50 values. The IC50 values are shown in Table A1, wherein “A” corresponds to IC50<5.0 nm, “B” corresponds to 5.0 nm≤IC50<10.0 nm, “C” corresponds to 10.0 nm≤IC50<50.0 nm, “D” corresponds to 50.0 nm≤IC50<100.0 nm, and “E” corresponds to 100.0 nm≤IC50<500.0 nm, and “F” corresponds to 500.0 nm≤IC50.

[2] = B16F10, + IFNγ, read-out: IC50 + IFNγ
[3] = B16F10, no IFNγ, read-out: IC50 no IFNγ
[4] = + IFNγ, read-out: % Growth Inhibition at 100 μM + IFNγ
[5] = no IFNγ, read-out: % Growth Inhibition at 100 μM no IFNγ

SMILES | IC50 [1, 2] [µM] | IC50 [1, 3] [µM] | IC50 (GST-tagged PTPN2 protein) [nM] | inhibition at 100 µM [1, 4] [%] | inhibition at 100 µM [1, 5] [%] | inhibition at 40 µM ([1]; B16-F10, B16F10, 40 μM compound, no IFNγ, read-out: % Growth Inhibition no IFNγ @ 40 μM) [%]
COc1ccc(-c2cc(O)c(N3CC(=O)NS3(=O)=O)c(F)c2)cc1 [Example 3, 5-(3-fluoro-5-hydroxy-4′-methoxybiphenyl-4-yl)-1,2,5-thiadiazolidin-3-one 1,1-dioxide] | ≥ 100 | ≥ 100 | 100 to 500 | 10 to 50 | 10 to 50 | 
O=C1CN(c2c(O)cc(NS(=O)(=O)c3ccccc3)cc2F)S(=O)(=O)N1 [Example 17, N-[4-(1,1-dioxido-4-oxo-1,2,5-thiadiazolidin-2-yl)-3-fluoro-5-hydroxyphenyl]benzenesulfonamide] | 10 to 50 | 10 to 50 | 10 to 50 |  |  | 10 to 50
O=C1CN(c2c(O)cc(NC(=O)Nc3cccc(F)c3)cc2F)S(=O)(=O)N1 [Example 54, 1-[4-(1,1-dioxido-4-oxo-1,2,5-thiadiazolidin-2-yl)-3-fluoro-5-hydroxyphenyl]-3-(3-fluorophenyl)urea] | 10 to 50 | ≥ 100 | < 5 | 50 to 75 | 10 to 50 | 
CC(C)C[C@@H](CO)NC(=O)Nc1cc(O)c(N2CC(=O)NS2(=O)=O)c(F)c1 [Example 110, 1-[3-fluoro-5-hydroxy-4-(1,1,4-trioxo-1,2,5-thiadiazolidin-2-yl)phenyl]-3-[(1S)-1-(hydroxymethyl)-3-methyl-butyl]urea] | 10 to 50 | ≥ 100 | 5 to 10 | 50 to 75 | 10 to 50 | 
O=C1CN(c2c(O)cc(NC(=O)NCC3CNCC34CCCCC4)cc2F)S(=O)(=O)N1 (stereo not shown) [Example 100, 1-(2-azaspiro[4.5]decan-4-ylmethyl)-3-[3-fluoro-5-hydroxy-4-(1,1,4-trioxo-1,2,5-thiadiazolidin-2-yl)phenyl]urea] | 10 to 50 | ≥ 100 | 10 to 50 | 50 to 75 | 10 to 50 | 

Continued, in another order:

IC50 [1, 2] [µM] | IC50 [1, 3] [µM] | IC50 (GST-tagged PTPN2 protein) [nM] | SMILES | inhibition at 100 µM [1, 4] [%] | inhibition at 100 µM [1, 5] [%] | inhibition at 40 µM ([1]; B16-F10, B16F10, 40 μM compound, no IFNγ, read-out: % Growth Inhibition no IFNγ @ 40 μM) [%]
≥ 100 | ≥ 100 | 5 to 10 | O=C1CN(c2c(O)cc(NC(=O)Nc3ccccc3C(F)(F)F)cc2F)S(=O)(=O)N1 [Example 55, 1-[4-(1,1-dioxido-4-oxo-1,2,5-thiadiazolidin-2-yl)-3-fluoro-5-hydroxyphenyl]-3-[2-(trifluoromethyl)phenyl]urea] | 10 to 50 | 10 to 50 | 
≥ 100 | ≥ 100 | 100 to 500 | CC(C)(C)c1ccc(C(=O)Nc2cc(O)c(N3CC(=O)NS3(=O)=O)c(F)c2)cc1 [Example 16, 4-tert-butyl-N-[4-(1,1-dioxido-4-oxo-1,2,5-thiadiazolidin-2-yl)-3-fluoro-5-hydroxyphenyl]benzamide] | 10 to 50 | 10 to 50 | 
50 to 100 | ≥ 100 | 5 to 10 | O=C1CN(c2c(O)cc(NC(=O)Nc3ccc(C(F)(F)F)cc3)cc2F)S(=O)(=O)N1 [Example 41, 1-[4-(1,1-dioxido-4-oxo-1,2,5-thiadiazolidin-2-yl)-3-fluoro-5-hydroxyphenyl]-3-[4-(trifluoromethyl)phenyl]urea] | 50 to 75 | 10 to 50 | 
≥ 100 | ≥ 100 | 100 to 500 | O=C1CN(c2c(O)cc(-c3ccc(F)cc3)cc2F)S(=O)(=O)N1 [Example 8, 5-(3,4′-difluoro-5-hydroxybiphenyl-4-yl)-1,2,5-thiadiazolidin-3-one 1,1-dioxide] | 10 to 50 | 10 to 50 | 
10 to 50 | ≥ 100 | < 5 | COc1ccc(NC(=O)Nc2cc(O)c(N3CC(=O)NS3(=O)=O)c(F)c2)cc1OC [Example 59, 1-(3,4-dimethoxyphenyl)-3-[4-(1,1-dioxido-4-oxo-1,2,5-thiadiazolidin-2-yl)-3-fluoro-5-hydroxyphenyl]urea] | 50 to 75 | 10 to 50 | 
